Test results: US20120270844A1, “METHODS FOR TREATING ALZHEIMER'S DISEASE” (aFRAXis, Inc., priority 2009, published 2012)

Each compound was assayed against PAK1 (Homo sapiens, UniProt Q13153) (assay: Z'Lyte fluorescence-based (FRET) PAK kinase assay, PAK1). Settings: Table 1 of Example 100; 50 μM ATP.
Format: biochemical
Protocol: (§1) A fluorescence-based assay format is used to determine IC50 values of test compounds in vitro. Purified PAK kinase is incubated with ATP, and a test compound at various concentrations and a substrate peptide containing two fluorophores. In a second step, the reaction mix is incubated with a site-specific protease that cleaves non-phosphorylated bat not phosphorylated substrate peptide, disrupting the FRET signal generated by the two fluorophores in the cleaved peptide (Z′Lyte™ Kinase assay platform; Life Technologies).
(§2) Reagents: 50 mM HEPES, pH 7.5; 0.01% BRIJ-35; 10 nM MgCl1; 1 mM EGTA, 2 uM substrate peptide Ser/Thr20 (proprietary Life Technologies Sequence), PAK enzyme [2.42-30.8 ng for PAK1, 0.29-6 ng for PAK2, 1.5-20 ng for PAK3 and 0.1-0.86 ng for PAK4; actual enzyme amounts depend on lot activity of the enzyme preparation]
(§3) Test compounds are dissolved in DMSO at various concentrations; the final DMSO concentration in the assay reaction is 1%.
(§4) ATP concentration at Kin apparent is used in the assay [50 ┌M ATP for PAK1 assay, 75 ┌M ATP for PAK2 assay, 100 μM ATP for PAK3 assay, 5 μM ATP for PAK4 assay] in a total assay volume of 10 μl. Assay reactions are incubated at room temperature for 1 hr. Following the kinase reaction, 5 μl of 1:256 dilution of development solution A (Life Technologies) is added and the reaction mix is incubated for an additional 1 hr at room temperature.
(§5) Plates are analyzed in a standard fluorescence plate reader (Tecan or equivalent) using an excitation wavelength of 400 nn and emission wavelengths of 445 nm and 520 nm.
(§6) Inhibition of kinase reaction is determined by emission ratio=emission@445 nm/emission@520 nm
as §1, with “non-phosphorylated but” for “non-phosphorylated bat”, “peptide (Z'Lyte™” for “peptide (Z′Lyte™”, “assay platform” for “assay platform;”
as §2, with “mM MgCl2;” for “nM MgCl1;”
as §4, with “at Km” for “at Kin”, “[50 μMATP” for “[50 ┌M ATP”, “75 µM” for “75 ┌M”, “[…]” for “10 μl.”, “kinase reaction.” for “kinase reaction,”, “[…]” for “5 μl”
(§7) Plates are analyzed in a standard fluorescence plate reader (Teem or equivalent) using an excitation wavelength of 400 nm and emission wavelengths of 445 nm and 520 nm.

Sequence of PAK1 (Q13153 whole entry): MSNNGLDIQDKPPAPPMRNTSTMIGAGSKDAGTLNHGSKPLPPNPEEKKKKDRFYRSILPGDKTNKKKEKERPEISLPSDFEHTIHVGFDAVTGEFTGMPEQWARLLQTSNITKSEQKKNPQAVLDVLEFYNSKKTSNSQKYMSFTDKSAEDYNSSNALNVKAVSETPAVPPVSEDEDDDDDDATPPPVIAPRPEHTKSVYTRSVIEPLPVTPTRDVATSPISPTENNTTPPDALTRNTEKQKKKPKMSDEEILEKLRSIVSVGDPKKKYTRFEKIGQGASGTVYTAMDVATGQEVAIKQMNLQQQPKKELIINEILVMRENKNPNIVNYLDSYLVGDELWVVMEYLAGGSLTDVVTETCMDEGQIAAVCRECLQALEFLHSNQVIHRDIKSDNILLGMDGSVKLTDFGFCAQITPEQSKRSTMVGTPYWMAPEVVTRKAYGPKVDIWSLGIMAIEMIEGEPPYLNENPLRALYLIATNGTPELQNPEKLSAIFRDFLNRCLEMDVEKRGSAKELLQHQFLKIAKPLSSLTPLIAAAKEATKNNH

IC50 [µM] | SMILES
> 10 | CN(C)CC(c1ccccc1)n1c(=O)ccc2cnc(Nc3ccc(N4CCOCC4)cc3)nc21 (stereo not drawn) [Compound 16]
< 1 | CN1CCN(c2ccc(Nc3ncc4ccc(=O)n(C5Cc6ccccc6C5)c4n3)cc2)CC1 [Compound 17]
< 1 | CN1CCN(c2ccc(Nc3ncc4ccc(=O)n(C5CCc6ccccc6C5)c4n3)cc2)CC1 (stereo not drawn) [Compound 18]
> 10 | CN(C)CC(c1ccccc1)n1c(=O)ccc2cnc(Nc3ccc(N4CCN(C)CC4)cc3)nc21 (stereo not drawn) [Compound 19]
< 1 | CN1CCN(c2ccc(Nc3ncc4ccc(=O)n(C5CCC(C)(C)c6ccccc65)c4n3)cc2)CC1 (stereo not drawn) [Compound 20]
< 1 | O=c1ccc2cnc(Nc3ccc(N4CCNCC4)c(F)c3)nc2n1C1Cc2ccccc2C1 [Compound 21]
< 1 | O=c1ccc2cnc(Nc3ccc(N4CCNCC4)c(F)c3)nc2n1C1CCc2ccccc2C1 (stereo not drawn) [Compound 22]
< 1 | CN1CCN(c2ccc(Nc3ncc4ccc(=O)n(Cc5ccccc5C(F)(F)F)c4n3)cc2)CC1 [Compound 42]
< 1 | CN1CCN(c2ccc(Nc3ncc4ccc(=O)n(Cc5ccccc5SC(F)(F)F)c4n3)cc2)CC1 [Compound 43]
< 1 | CN1CCN(c2ccc(Nc3ncc4ccc(=O)n(Cc5ccccc5OC(F)F)c4n3)cc2)CC1 [Compound 44]
1 to 10 | Cc1cc(F)ccc1Cn1c(=O)ccc2cnc(Nc3ccc(N4CCN(C)CC4)cc3)nc21 [Compound 45]
1 to 10 | Cc1ccc(C)c(Cn2c(=O)ccc3cnc(Nc4ccc(N5CCN(C)CC5)cc4)nc32)c1 [Compound 46]
1 to 10 | CC(c1ccccc1)n1c(=O)ccc2cnc(Nc3ccc(N4CCN(C)CC4)cc3)nc21 (stereo not drawn) [Compound 48]
< 1 | CN1CCN(c2ccc(Nc3ncc4ccc(=O)n(CCc5ccccc5)c4n3)cc2)CC1 [Compound 49]
1 to 10 | CN1CCN(c2ccc(Nc3ncc4ccc(=O)n(CC(=O)c5ccccc5)c4n3)cc2)CC1 [Compound 50]
1 to 10 | Cc1cccnc1Cn1c(=O)ccc2cnc(Nc3ccc(N4CCN(C)CC4)cc3)nc21 [Compound 52]
< 1 | CN1CCN(c2ccc(Nc3ncc4ccc(=O)n(Cc5ccccc5-n5cccn5)c4n3)cc2)CC1 [Compound 53]
< 1 | COc1ccc(F)cc1Cn1c(=O)ccc2cnc(Nc3ccc(N4CCN(C)CC4)cc3)nc21 [Compound 54]

These compounds were tested against PAK2 (Homo sapiens, UniProt Q13177) (assay: Z'Lyte fluorescence-based (FRET) PAK kinase assay, PAK2). Settings: Table 1 of Example 100; 75 μM ATP.
Sequence of PAK2 (Q13177 whole entry): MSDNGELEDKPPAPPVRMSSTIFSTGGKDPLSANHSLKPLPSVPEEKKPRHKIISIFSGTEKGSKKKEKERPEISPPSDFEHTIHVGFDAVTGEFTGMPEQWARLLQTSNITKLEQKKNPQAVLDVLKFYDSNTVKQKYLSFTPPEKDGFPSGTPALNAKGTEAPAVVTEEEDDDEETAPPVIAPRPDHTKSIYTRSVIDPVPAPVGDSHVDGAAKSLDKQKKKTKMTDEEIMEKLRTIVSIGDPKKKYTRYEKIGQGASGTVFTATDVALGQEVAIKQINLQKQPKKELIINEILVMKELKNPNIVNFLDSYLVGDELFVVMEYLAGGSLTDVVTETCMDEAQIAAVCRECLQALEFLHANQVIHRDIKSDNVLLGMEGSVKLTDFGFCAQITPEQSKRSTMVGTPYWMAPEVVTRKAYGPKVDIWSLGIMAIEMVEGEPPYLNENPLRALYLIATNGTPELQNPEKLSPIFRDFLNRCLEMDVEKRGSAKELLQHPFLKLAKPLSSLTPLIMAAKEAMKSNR
Format: biochemical
Protocol: as §1, §2, §3, §4, §5, §6
as §1, with “non-phosphorylated but” for “non-phosphorylated bat”, “peptide (Z'Lyte™” for “peptide (Z′Lyte™”, “assay platform” for “assay platform;”
as §2, with “mM MgCl2;” for “nM MgCl1;”
as §4, with “at Km” for “at Kin”, “[50 μMATP” for “[50 ┌M ATP”, “75 µM” for “75 ┌M”, “[…]” for “10 μl.”, “kinase reaction.” for “kinase reaction,”, “[…]” for “5 μl”
as §7

IC50 [µM] | SMILES
> 10 | CN(C)CC(c1ccccc1)n1c(=O)ccc2cnc(Nc3ccc(N4CCOCC4)cc3)nc21 (stereo not drawn) [Compound 16]
1 to 10 | CN1CCN(c2ccc(Nc3ncc4ccc(=O)n(C5Cc6ccccc6C5)c4n3)cc2)CC1 [Compound 17]
< 1 | CN1CCN(c2ccc(Nc3ncc4ccc(=O)n(C5CCc6ccccc6C5)c4n3)cc2)CC1 (stereo not drawn) [Compound 18]
> 10 | CN(C)CC(c1ccccc1)n1c(=O)ccc2cnc(Nc3ccc(N4CCN(C)CC4)cc3)nc21 (stereo not drawn) [Compound 19]
< 1 | CN1CCN(c2ccc(Nc3ncc4ccc(=O)n(C5CCC(C)(C)c6ccccc65)c4n3)cc2)CC1 (stereo not drawn) [Compound 20]
< 1 | O=c1ccc2cnc(Nc3ccc(N4CCNCC4)c(F)c3)nc2n1C1Cc2ccccc2C1 [Compound 21]
< 1 | O=c1ccc2cnc(Nc3ccc(N4CCNCC4)c(F)c3)nc2n1C1CCc2ccccc2C1 (stereo not drawn) [Compound 22]
< 1 | CN1CCN(c2ccc(Nc3ncc4ccc(=O)n(Cc5ccccc5C(F)(F)F)c4n3)cc2)CC1 [Compound 42]
< 1 | CN1CCN(c2ccc(Nc3ncc4ccc(=O)n(Cc5ccccc5SC(F)(F)F)c4n3)cc2)CC1 [Compound 43]
< 1 | CN1CCN(c2ccc(Nc3ncc4ccc(=O)n(Cc5ccccc5OC(F)F)c4n3)cc2)CC1 [Compound 44]
1 to 10 | Cc1cc(F)ccc1Cn1c(=O)ccc2cnc(Nc3ccc(N4CCN(C)CC4)cc3)nc21 [Compound 45]
1 to 10 | Cc1ccc(C)c(Cn2c(=O)ccc3cnc(Nc4ccc(N5CCN(C)CC5)cc4)nc32)c1 [Compound 46]
1 to 10 | CC(c1ccccc1)n1c(=O)ccc2cnc(Nc3ccc(N4CCN(C)CC4)cc3)nc21 (stereo not drawn) [Compound 48]
< 1 | CN1CCN(c2ccc(Nc3ncc4ccc(=O)n(CCc5ccccc5)c4n3)cc2)CC1 [Compound 49]
1 to 10 | CN1CCN(c2ccc(Nc3ncc4ccc(=O)n(CC(=O)c5ccccc5)c4n3)cc2)CC1 [Compound 50]
1 to 10 | Cc1cccnc1Cn1c(=O)ccc2cnc(Nc3ccc(N4CCN(C)CC4)cc3)nc21 [Compound 52]
1 to 10 | CN1CCN(c2ccc(Nc3ncc4ccc(=O)n(Cc5ccccc5-n5cccn5)c4n3)cc2)CC1 [Compound 53]
1 to 10 | COc1ccc(F)cc1Cn1c(=O)ccc2cnc(Nc3ccc(N4CCN(C)CC4)cc3)nc21 [Compound 54]

These compounds were tested against PAK3 (Homo sapiens, UniProt O75914) (assay: Z'Lyte fluorescence-based (FRET) PAK kinase assay, PAK3). Settings: Table 1 of Example 100; 100 μM ATP.
Sequence of PAK3 (O75914 whole entry): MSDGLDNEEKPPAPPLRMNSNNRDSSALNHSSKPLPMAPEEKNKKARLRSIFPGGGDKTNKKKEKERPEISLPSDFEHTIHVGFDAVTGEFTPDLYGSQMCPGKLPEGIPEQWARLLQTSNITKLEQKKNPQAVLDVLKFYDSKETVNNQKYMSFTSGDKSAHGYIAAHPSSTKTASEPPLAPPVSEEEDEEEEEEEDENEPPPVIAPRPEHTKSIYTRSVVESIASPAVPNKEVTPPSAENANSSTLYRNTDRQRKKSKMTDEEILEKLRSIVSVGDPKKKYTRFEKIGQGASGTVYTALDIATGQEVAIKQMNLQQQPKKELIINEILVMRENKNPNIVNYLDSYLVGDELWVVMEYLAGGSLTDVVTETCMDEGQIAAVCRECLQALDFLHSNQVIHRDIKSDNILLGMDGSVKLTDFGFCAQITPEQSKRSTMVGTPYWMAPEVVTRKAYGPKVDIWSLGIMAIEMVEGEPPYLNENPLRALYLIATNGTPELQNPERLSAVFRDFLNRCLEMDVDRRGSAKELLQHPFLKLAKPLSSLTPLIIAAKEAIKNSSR
Format: biochemical
Protocol: as §1, §2, §3, §4, §5, §6
as §1, with “non-phosphorylated but” for “non-phosphorylated bat”, “peptide (Z'Lyte™” for “peptide (Z′Lyte™”, “assay platform” for “assay platform;”
as §2, with “mM MgCl2;” for “nM MgCl1;”
as §4, with “at Km” for “at Kin”, “[50 μMATP” for “[50 ┌M ATP”, “75 µM” for “75 ┌M”, “[…]” for “10 μl.”, “kinase reaction.” for “kinase reaction,”, “[…]” for “5 μl”
as §7

IC50 [µM] | SMILES
> 10 | CN(C)CC(c1ccccc1)n1c(=O)ccc2cnc(Nc3ccc(N4CCOCC4)cc3)nc21 (stereo not drawn) [Compound 16]
1 to 10 | CN1CCN(c2ccc(Nc3ncc4ccc(=O)n(C5Cc6ccccc6C5)c4n3)cc2)CC1 [Compound 17]
< 1 | CN1CCN(c2ccc(Nc3ncc4ccc(=O)n(C5CCc6ccccc6C5)c4n3)cc2)CC1 (stereo not drawn) [Compound 18]
> 10 | CN(C)CC(c1ccccc1)n1c(=O)ccc2cnc(Nc3ccc(N4CCN(C)CC4)cc3)nc21 (stereo not drawn) [Compound 19]
1 to 10 | CN1CCN(c2ccc(Nc3ncc4ccc(=O)n(C5CCC(C)(C)c6ccccc65)c4n3)cc2)CC1 (stereo not drawn) [Compound 20]
1 to 10 | O=c1ccc2cnc(Nc3ccc(N4CCNCC4)c(F)c3)nc2n1C1Cc2ccccc2C1 [Compound 21]
< 1 | O=c1ccc2cnc(Nc3ccc(N4CCNCC4)c(F)c3)nc2n1C1CCc2ccccc2C1 (stereo not drawn) [Compound 22]
< 1 | CN1CCN(c2ccc(Nc3ncc4ccc(=O)n(Cc5ccccc5C(F)(F)F)c4n3)cc2)CC1 [Compound 42]
< 1 | CN1CCN(c2ccc(Nc3ncc4ccc(=O)n(Cc5ccccc5SC(F)(F)F)c4n3)cc2)CC1 [Compound 43]
< 1 | CN1CCN(c2ccc(Nc3ncc4ccc(=O)n(Cc5ccccc5OC(F)F)c4n3)cc2)CC1 [Compound 44]
1 to 10 | Cc1cc(F)ccc1Cn1c(=O)ccc2cnc(Nc3ccc(N4CCN(C)CC4)cc3)nc21 [Compound 45]
1 to 10 | Cc1ccc(C)c(Cn2c(=O)ccc3cnc(Nc4ccc(N5CCN(C)CC5)cc4)nc32)c1 [Compound 46]
> 10 | CC(c1ccccc1)n1c(=O)ccc2cnc(Nc3ccc(N4CCN(C)CC4)cc3)nc21 (stereo not drawn) [Compound 48]
1 to 10 | CN1CCN(c2ccc(Nc3ncc4ccc(=O)n(CCc5ccccc5)c4n3)cc2)CC1 [Compound 49]
1 to 10 | CN1CCN(c2ccc(Nc3ncc4ccc(=O)n(CC(=O)c5ccccc5)c4n3)cc2)CC1 [Compound 50]
> 10 | Cc1cccnc1Cn1c(=O)ccc2cnc(Nc3ccc(N4CCN(C)CC4)cc3)nc21 [Compound 52]
1 to 10 | CN1CCN(c2ccc(Nc3ncc4ccc(=O)n(Cc5ccccc5-n5cccn5)c4n3)cc2)CC1 [Compound 53]
1 to 10 | COc1ccc(F)cc1Cn1c(=O)ccc2cnc(Nc3ccc(N4CCN(C)CC4)cc3)nc21 [Compound 54]

What follows are compounds tested against PAK4 (Homo sapiens, UniProt O96013) (assay: Z'Lyte fluorescence-based (FRET) PAK kinase assay, PAK4). Settings: Table 1 of Example 100; 5 μM ATP.
Sequence of PAK4 (O96013 whole entry): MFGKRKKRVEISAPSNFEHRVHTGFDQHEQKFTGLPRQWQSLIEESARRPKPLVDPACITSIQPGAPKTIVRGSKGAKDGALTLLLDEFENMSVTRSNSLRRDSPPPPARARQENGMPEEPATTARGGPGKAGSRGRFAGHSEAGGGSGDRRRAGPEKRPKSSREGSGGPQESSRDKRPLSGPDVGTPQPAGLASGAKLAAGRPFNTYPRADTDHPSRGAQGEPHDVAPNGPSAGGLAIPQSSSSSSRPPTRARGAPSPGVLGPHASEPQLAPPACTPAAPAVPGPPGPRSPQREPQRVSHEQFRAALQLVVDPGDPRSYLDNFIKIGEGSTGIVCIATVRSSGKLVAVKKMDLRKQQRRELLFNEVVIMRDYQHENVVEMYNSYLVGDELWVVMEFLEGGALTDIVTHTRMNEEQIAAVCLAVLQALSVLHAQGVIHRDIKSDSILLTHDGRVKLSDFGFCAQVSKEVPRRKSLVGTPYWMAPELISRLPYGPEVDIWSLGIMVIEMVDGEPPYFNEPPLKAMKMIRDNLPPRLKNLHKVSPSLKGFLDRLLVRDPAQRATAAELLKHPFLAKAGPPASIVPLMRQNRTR
Format: biochemical
Protocol: as §1, §2, §3, §4, §5, §6
as §1, with “non-phosphorylated but” for “non-phosphorylated bat”, “peptide (Z'Lyte™” for “peptide (Z′Lyte™”, “assay platform” for “assay platform;”
as §2, with “mM MgCl2;” for “nM MgCl1;”
as §4, with “at Km” for “at Kin”, “[50 μMATP” for “[50 ┌M ATP”, “75 µM” for “75 ┌M”, “[…]” for “10 μl.”, “kinase reaction.” for “kinase reaction,”, “[…]” for “5 μl”
as §7

IC50 [µM] | SMILES
> 10 | CN(C)CC(c1ccccc1)n1c(=O)ccc2cnc(Nc3ccc(N4CCOCC4)cc3)nc21 (stereo not drawn) [Compound 16]
< 1 | CN1CCN(c2ccc(Nc3ncc4ccc(=O)n(C5Cc6ccccc6C5)c4n3)cc2)CC1 [Compound 17]
< 1 | CN1CCN(c2ccc(Nc3ncc4ccc(=O)n(C5CCc6ccccc6C5)c4n3)cc2)CC1 (stereo not drawn) [Compound 18]
> 10 | CN(C)CC(c1ccccc1)n1c(=O)ccc2cnc(Nc3ccc(N4CCN(C)CC4)cc3)nc21 (stereo not drawn) [Compound 19]
1 to 10 | CN1CCN(c2ccc(Nc3ncc4ccc(=O)n(C5CCC(C)(C)c6ccccc65)c4n3)cc2)CC1 (stereo not drawn) [Compound 20]
< 1 | O=c1ccc2cnc(Nc3ccc(N4CCNCC4)c(F)c3)nc2n1C1Cc2ccccc2C1 [Compound 21]
< 1 | O=c1ccc2cnc(Nc3ccc(N4CCNCC4)c(F)c3)nc2n1C1CCc2ccccc2C1 (stereo not drawn) [Compound 22]
< 1 | CN1CCN(c2ccc(Nc3ncc4ccc(=O)n(Cc5ccccc5C(F)(F)F)c4n3)cc2)CC1 [Compound 42]
< 1 | CN1CCN(c2ccc(Nc3ncc4ccc(=O)n(Cc5ccccc5SC(F)(F)F)c4n3)cc2)CC1 [Compound 43]
< 1 | CN1CCN(c2ccc(Nc3ncc4ccc(=O)n(Cc5ccccc5OC(F)F)c4n3)cc2)CC1 [Compound 44]
1 to 10 | Cc1cc(F)ccc1Cn1c(=O)ccc2cnc(Nc3ccc(N4CCN(C)CC4)cc3)nc21 [Compound 45]
1 to 10 | Cc1ccc(C)c(Cn2c(=O)ccc3cnc(Nc4ccc(N5CCN(C)CC5)cc4)nc32)c1 [Compound 46]
1 to 10 | CC(c1ccccc1)n1c(=O)ccc2cnc(Nc3ccc(N4CCN(C)CC4)cc3)nc21 (stereo not drawn) [Compound 48]
< 1 | CN1CCN(c2ccc(Nc3ncc4ccc(=O)n(CCc5ccccc5)c4n3)cc2)CC1 [Compound 49]
1 to 10 | CN1CCN(c2ccc(Nc3ncc4ccc(=O)n(CC(=O)c5ccccc5)c4n3)cc2)CC1 [Compound 50]
1 to 10 | Cc1cccnc1Cn1c(=O)ccc2cnc(Nc3ccc(N4CCN(C)CC4)cc3)nc21 [Compound 52]
1 to 10 | CN1CCN(c2ccc(Nc3ncc4ccc(=O)n(Cc5ccccc5-n5cccn5)c4n3)cc2)CC1 [Compound 53]
1 to 10 | COc1ccc(F)cc1Cn1c(=O)ccc2cnc(Nc3ccc(N4CCN(C)CC4)cc3)nc21 [Compound 54]
